Laboratory results from patent US11053260B2, “Tri-cycle compound and applications thereof” (FUJIAN COSUNTER PHARMACEUTICAL CO., LTD., priority 2017, dated 2021).

The molecules below were run on HBV (assay: HBV in vitro test in quantitative qPCR assay (HBV DNA content in HepG2.2.15 cells)). Conditions: HBV DNA by qPCR, day 8, read-out: 50% inhibitory concentration (EC50) value of HBV.
Assay type: cell-based
Method: HBV In Vitro Test in Quantitative qPCR Assay
The HBV DNA content in HepG2.2.15 cells was determined by real-time quantitative qPCR assay (real time-qPCR), and the inhibitory effect of the compound on HBV was evaluated by the EC50 value of the compound.
2.1 Cell line: HepG2.2.15 cells
3.1 HepG2.2.15 cells (4×10^4 cells/well) were seeded into a 96-well plate and incubated overnight at 37° C. under 5% CO2.
3.2 On the 2nd day, the compound was diluted into 8 concentrations with 3-time gradient. The compounds with different concentrations were added into the culture wells in duplicate wells. The final concentration of DMSO in the culture medium was 1%. 1 μM GLS4 was used as a 100% inhibition control, and 1% DMSO was used as a 0% inhibition control.
3.3 On the 5th day, the culture medium was replaced with a fresh medium containing the compound.
3.4 On the 8th day, the culture medium in the culture well was collected, and the DNA was extracted with a high-throughput DNA purification kit (Qiagen-51162), of which specific procedure was referred to the product specification.
3.6 15 μL of the reaction mixture was added into each well of a 96-well PCR plate, followed by addition of 10 μL of sample DNA or HBV DNA standards into each well.
3.7 PCR reaction conditions: heating at 95° C. for 10 minutes; then denaturation at 95° C. for 15 seconds, extension at 60° C. for 1 minute, a total of 40 cycles.
3.8.1 Calculation of the percentage of inhibition: % Inh.=[1−(DNA copy number in sample−DNA copy number in 1 μM GLS4)/(DNA copy number in DMSO control−DNA copy number in 1 μM GLS4)]×100
3.8.2 Calculation of EC50: The 50% inhibitory concentration (EC50) value of the compound on HBV was calculated by GraphPad Prism software.

Row | SMILES | EC50 [nM]
1 | O=C(NCCOc1cccnc1)c1ccc2c(c1)NC(=O)c1cccn1S2(=O)=O [WX297] | ≤ 100

Same assay, conditions: Hepatitis B virus, HepG2.2.15, 192 h, HBV DNA by qPCR, day 8, read-out: 50% inhibitory concentration (EC50) value of HBV

Row | SMILES | EC50 [nM]
2 | CC(C)(C)OC(=O)N1CC(CNC(=O)c2ccc3c(c2)NC(=O)c2cccn2S3(=O)=O)C1 [WX196] | ≤ 100
3 | Cc1cc2n(c1)S(=O)(=O)c1ccc(C(=O)NCCc3ccc(F)cc3)cc1NC2=O [WX305] | ≤ 100
4 | O=C(NCCc1ccc(F)c(F)c1)c1ccc2c(c1)NC(=O)c1cccn1S2(=O)=O [WX293] | ≤ 100
5 | CC(C)(C)OC(=O)N1CC2C(C1)C2NC(=O)c1ccc2c(c1)NC(=O)c1cccn1S2(=O)=O (stereo not shown) [WX146] | 1000 to 10000
6 | O=C(NCc1cccc(OC(F)(F)F)c1)c1ccc2c(c1)NC(=O)c1cccn1S2(=O)=O [WX227] | 100 to 500
7 | O=C(NCCc1ccccn1)c1ccc2c(c1)NC(=O)c1cccn1S2(=O)=O [WX229] | 100 to 500
8 | Cc1cccc2ncc(CNC(=O)c3ccc4c(c3)NC(=O)c3cccn3S4(=O)=O)n12 [WX258] | 100 to 500
9 | Cc1ccsc1CNC(=O)c1ccc2c(c1)NC(=O)c1cccn1S2(=O)=O [WX259] | 100 to 500
10 | CS(=O)(=O)CCCNC(=O)c1ccc2c(c1)NC(=O)c1cccn1S2(=O)=O [WX190] | 500 to 1000
11 | COCCCNC(=O)c1ccc2c(c1)NC(=O)c1cccn1S2(=O)=O [WX175] | 100 to 500
12 | CN1CCOC(CCNC(=O)c2ccc3c(c2)NC(=O)c2cccn2S3(=O)=O)C1 (stereo not shown) [WX326] | ≤ 100
13 | O=C(NCCc1ccc(F)cc1)c1ccc2c(c1)NC(=O)c1cccn1S2(=O)=O [WX216] | ≤ 100
14 | O=C(NCCC(F)(F)F)c1ccc2c(c1)NC(=O)c1cccn1S2(=O)=O [WX230] | 100 to 500
15 | Cc1nc(C)c(CNC(=O)c2ccc3c(c2)NC(=O)c2cccn2S3(=O)=O)s1 [WX260] | ≤ 100
16 | Cc1cc2n(c1)S(=O)(=O)c1ccc(C(=O)NCCC3CCCO3)cc1NC2=O (stereo not shown) [WX186] | ≤ 100
17 | CCc1cc2n(c1)S(=O)(=O)c1ccc(C(=O)NCCC3CCCO3)cc1NC2=O (stereo not shown) [WX185] | ≤ 100
18 | CC(C)(C)OC(=O)N1CC(NC(=O)c2ccc3c(c2)NC(=O)c2cccn2S3(=O)=O)C1 [WX195] | 500 to 1000
19 | O=C(NCCc1ccccc1)c1ccc2c(c1)NC(=O)c1cccn1S2(=O)=O [WX218] | ≤ 100
20 | COC(=O)N1CCOC(CCNC(=O)c2ccc3c(c2)NC(=O)c2cccn2S3(=O)=O)C1 (stereo not shown) [WX323] | ≤ 100
21 | O=C(NCCCc1ccc(F)cc1)c1ccc2c(c1)NC(=O)c1cccn1S2(=O)=O [WX299] | 100 to 500
22 | O=C(NCCc1cccnc1)c1ccc2c(c1)NC(=O)c1cccn1S2(=O)=O [WX278] | ≤ 100

Row | SMILES | EC50 [nM]
23 | O=C(NCCC1CCCCCO1)c1ccc2c(c1)NC(=O)c1cccn1S2(=O)=O (stereo not shown) [WX318] | ≤ 100
24 | O=C(NCCC1CCCO1)c1ccc2c(c1)NC(=O)c1cc(F)cn1S2(=O)=O (stereo not shown) [WX270] | 100 to 500
25 | O=C(NCCC1COCCO1)c1ccc2c(c1)NC(=O)c1cc(CC(F)(F)F)cn1S2(=O)=O (stereo not shown) [WX328] | ≤ 100
26 | O=C(NCCc1ccc(Cl)cc1)c1ccc2c(c1)NC(=O)c1cccn1S2(=O)=O [WX301] | ≤ 100
27 | Cc1cc2n(c1)S(=O)(=O)c1ccc(C(=O)NCCC3CCCCO3)cc1NC2=O (stereo not shown) [WX309] | ≤ 100
28 | O=C(NCC1CCC(F)(F)CC1)c1ccc2c(c1)NC(=O)c1cccn1S2(=O)=O [WX288] | 100 to 500
29 | CC(C)(C)OC(=O)N1CCCC1CNC(=O)c1ccc2c(c1)NC(=O)c1cccn1S2(=O)=O (stereo not shown) [WX198] | 100 to 500
30 | O=C(NCc1cnc(Cl)s1)c1ccc2c(c1)NC(=O)c1cccn1S2(=O)=O [WX257] | ≤ 100
31 | CC(C)c1ncc(CNC(=O)c2ccc3c(c2)NC(=O)c2c(Cl)ccn2S3(=O)=O)s1 [WX145] | 100 to 500
32 | O=C(NCc1cccc(F)c1)c1ccc2c(c1)NC(=O)c1cccn1S2(=O)=O [WX239] | ≤ 100
33 | O=C(NCc1cnc2ccccn12)c1ccc2c(c1)NC(=O)c1cccn1S2(=O)=O [WX267] | 100 to 500
34 | O=C(NCc1cncnc1)c1ccc2c(c1)NC(=O)c1cccn1S2(=O)=O [WX231] | 100 to 500
35 | COc1ccc(CCNC(=O)c2ccc3c(c2)NC(=O)c2cccn2S3(=O)=O)cc1 [WX217] | ≤ 100
36 | O=C(NCCC1CCCCC1)c1ccc2c(c1)NC(=O)c1cccn1S2(=O)=O [WX215] | 100 to 500
37 | O=C(NCCC1CCCO1)c1ccc2c(c1)NC(=O)c1cc(Br)cn1S2(=O)=O (stereo not shown) [WX311] | ≤ 100
38 | O=C(NCC1CCN(C(=O)Oc2ccccc2)CC1)c1ccc2c(c1)NC(=O)c1cccn1S2(=O)=O [WX286] | 500 to 1000
39 | O=C(NCCc1cnco1)c1ccc2c(c1)NC(=O)c1cccn1S2(=O)=O [WX206] | 100 to 500
40 | N#Cc1ccc(-c2ncc(CNC(=O)c3ccc4c(c3)NC(=O)c3cccn3S4(=O)=O)s2)cc1 [WX298] | ≤ 100
41 | CC(C)c1ncc(CNC(=O)c2ccc3c(c2)NC(=O)c2cccn2S3(=O)=O)s1 [WX254] | 100 to 500
42 | O=C(NCCOC1CCCC1)c1ccc2c(c1)NC(=O)c1cccn1S2(=O)=O [WX292] | 500 to 1000
43 | CC(C)OC(=O)N1CCC(CNC(=O)c2ccc3c(c2)NC(=O)c2cccn2S3(=O)=O)CC1 [WX285] | 100 to 500

Row | SMILES | EC50 [nM]
44 | CN(Cc1nc2ccccc2s1)C(=O)c1ccc2c(c1)NC(=O)c1cccn1S2(=O)=O [WX266] | 100 to 500
45 | CC(C)(C)OC(=O)N1CCC(CCNC(=O)c2ccc3c(c2)NC(=O)c2cccn2S3(=O)=O)CC1 [WX197] | 100 to 500
46 | O=C(NCCC1CCCC1)c1ccc2c(c1)NC(=O)c1cccn1S2(=O)=O [WX184] | 100 to 500
47 | O=C(NCCc1cccc(Cl)c1)c1ccc2c(c1)NC(=O)c1cccn1S2(=O)=O [WX300] | 100 to 500
48 | Cc1nnc(CNC(=O)c2ccc3c(c2)NC(=O)c2cccn2S3(=O)=O)s1 [WX271] | 500 to 1000
49 | O=C(NCc1ccncc1)c1ccc2c(c1)NC(=O)c1cccn1S2(=O)=O [WX228] | 100 to 500
50 | Cc1ccc(CNC(=O)c2ccc3c(c2)NC(=O)c2cccn2S3(=O)=O)s1 [WX262] | 100 to 500
51 | O=C(NCCN1CCCC1=O)c1ccc2c(c1)NC(=O)c1cccn1S2(=O)=O [WX208] | 500 to 1000
52 | Cn1nccc1CNC(=O)c1ccc2c(c1)NC(=O)c1cccn1S2(=O)=O [WX263] | 500 to 1000
53 | O=C(NCc1cnccc1C(F)(F)F)c1ccc2c(c1)NC(=O)c1cccn1S2(=O)=O [WX265] | 1000 to 10000
54 | O=C(NCCC1COCCOC1)c1ccc2c(c1)NC(=O)c1cccn1S2(=O)=O [WX321] | 100 to 500
55 | CC(=O)N1CCOC(CCNC(=O)c2ccc3c(c2)NC(=O)c2cccn2S3(=O)=O)C1 (stereo not shown) [WX322] | ≤ 100
56 | O=C(NCC1CCOC1)c1ccc2c(c1)NC(=O)c1cccn1S2(=O)=O (stereo not shown) [WX280] | 100 to 500
57 | O=C(NCCC1CCCO1)c1ccc2c(c1)NC(=O)c1cc(Cl)cn1S2(=O)=O (stereo not shown) [WX143] | ≤ 100
58 | COC1(CCNC(=O)c2ccc3c(c2)NC(=O)c2cccn2S3(=O)=O)CC1 [WX223] | 500 to 1000
59 | Cn1cc(CNC(=O)c2ccc3c(c2)NC(=O)c2cccn2S3(=O)=O)cn1 [WX272] | 100 to 500
60 | CN(C)c1ncc(CNC(=O)c2ccc3c(c2)NC(=O)c2cccn2S3(=O)=O)s1 [WX233] | ≤ 100
61 | CS(=O)(=O)N1CC(NC(=O)c2ccc3c(c2)NC(=O)c2cccn2S3(=O)=O)C1 [WX232] | 500 to 1000
62 | O=C(NCc1cccnc1)c1ccc2c(c1)NC(=O)c1cccn1S2(=O)=O [WX220] | ≤ 100
63 | CC(C)c1cc2n(c1)S(=O)(=O)c1ccc(C(=O)NCCC3COCCO3)cc1NC2=O (stereo not shown) [WX338] | 100 to 500
64 | CSCCNC(=O)c1ccc2c(c1)NC(=O)c1cccn1S2(=O)=O [WX219] | ≤ 100
